Source: doi:10.1101/692707v2 (biorxiv, 2020)

What was measured:
Assay type in all cases: binding
[1] = biological target: T1, YdiU^475 (Escherichia coli, UniProt P77649); test: DSF on Uncle platform; settings: 2 mM Mn2+, Tm of complex, not a shift, apo 38.3 °C (with 5 mM EDTA)
T1 sequence (P77649 1-475): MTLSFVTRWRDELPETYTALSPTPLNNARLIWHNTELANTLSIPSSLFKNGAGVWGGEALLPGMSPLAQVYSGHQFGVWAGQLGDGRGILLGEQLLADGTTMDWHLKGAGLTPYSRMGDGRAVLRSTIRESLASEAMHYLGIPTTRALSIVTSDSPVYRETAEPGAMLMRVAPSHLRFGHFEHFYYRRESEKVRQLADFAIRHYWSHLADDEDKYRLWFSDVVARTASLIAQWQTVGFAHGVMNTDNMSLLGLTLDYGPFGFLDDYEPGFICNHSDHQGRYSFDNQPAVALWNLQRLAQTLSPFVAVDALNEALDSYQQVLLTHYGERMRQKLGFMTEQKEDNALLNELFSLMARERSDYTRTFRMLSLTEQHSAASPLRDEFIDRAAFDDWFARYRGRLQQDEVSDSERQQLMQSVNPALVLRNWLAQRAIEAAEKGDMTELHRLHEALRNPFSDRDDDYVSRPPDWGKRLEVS

[2] = biological target: T1, YdiU^475; test: SPR
[3] = biological target: T1, YdiU^475; test: X-ray crystal structure; settings: Mg2+, active site

SMILES: Nc1ncnc2c1ncn2[C@@H]1O[C@H](COP(=O)(O)OP(=O)(O)OP(=O)(O)O)[C@@H](O)[C@H]1O [ATP]
- Tm1 ([1]; 1 mM ATP): 50.3 °C

SMILES: O=c1ccn([C@@H]2O[C@H](COP(=O)(O)OP(=O)(O)OP(=O)(O)O)[C@@H](O)[C@H]2O)c(=O)[nH]1 [UTP]
- Tm1 ([1]; 1 mM UTP): 40.6 °C

SMILES: O=c1ccn([C@@H]2O[C@H](COP(=O)(O)NP(=O)(O)OP(=O)(O)O)[C@@H](O)[C@H]2O)c(=O)[nH]1 [UMPNPP]
- Kd [2]: ~0.14 µM

SMILES: Nc1ncnc2c1ncn2[C@@H]1O[C@H](COP(=O)(O)O)[C@@H](O)[C@H]1O [AMP]
- X-ray crystal structure ([3]; together with imidodiphosphate): 6III (YdiU-AMP-imidodiphosphonic acid)

SMILES: O=P(O)(O)NP(=O)(O)O [imidodiphosphonic acid]
- X-ray crystal structure ([3]; together with AMP): 6III (YdiU-AMP-imidodiphosphonic acid)

SMILES: Nc1ncnc2c1ncn2[C@@H]1O[C@H](COP(=O)(O)OP(=O)(O)NP(=O)(O)O)[C@@H](O)[C@H]1O [AMPNPP]
- Kd [2]: ~18 µM
